Tests used:
Format in all cases: cell-based
NCI-H1299 cells = experiment: CCK-8 assay for cell proliferation and cytotoxicity, NCI-H1299; conditions: Homo sapiens, CCK-8, 48 h
Protocol: (§1) Three types of lung cells were seeded into 96-well plate at a density of 5 × 10^3 cells per well at logarithmic growth phase and cultured in 37 °C. […] After that, cell viability was determined according to the instruction of the CCK-8 assay. Next, 10 μL of CCK-8 solution was added to each well of the plate and incubate the plate for 1–4 h in the incubator. The absorbance was measured at 450 nm using a microplate reader (Bio-Tek). The percentage of viable cells was measured using the following formula where three independent experiments were performed: [(A450 sample − A450blank)/(A450 control − A450blank)] × 100%.

NCI-H1437 cells = experiment: CCK-8 assay for cell proliferation and cytotoxicity, NCI-H1437; conditions: Homo sapiens, CCK-8, 48 h, read-out: IC50 1437
Protocol: as §1

A549 cells = experiment: CCK-8 assay for cell proliferation and cytotoxicity, A549; conditions: Homo sapiens, CCK-8, 48 h
Protocol: A549 cells were cultured in a humidified incubator at 37 °C with 5% CO2 in Ham’s F-12 K (PM150910, Procell) supplemented with 10% FBS and 1% Penicillin Streptomycin.
as §1

SMILES | IC50 (NCI-H1299 cells) [µM] | IC50 (NCI-H1437 cells) [µM] | IC50 (A549 cells) [µM]
COc1cc2ncnc(Nc3cccc(-c4cn(Cc5cccc(I)c5)nn4)c3)c2cc1OCCCN1CCOCC1 [Compound 7p] | 5.04 ± 0.33 | 4.93 ± 0.14 | 8.5 ± 0.34
COc1cc2ncnc(Nc3cccc(-c4cn(Cc5ccc(Cl)c(F)c5)nn4)c3)c2cc1OCCCN1CCOCC1 [Compound 7c] | 6.24 ± 0.32 | 3.08 ± 0.47 | 5.68 ± 0.14
COc1cc2ncnc(Nc3cccc(-c4cn(Cc5ccccc5[N+](=O)[O-])nn4)c3)c2cc1OCCCN1CCOCC1 [Compound 7e] | 5.81 ± 0.12 | 2.22 ± 0.18 | 4.38 ± 0.07
COc1cc2ncnc(Nc3cccc(-c4cn(Cc5ccc(C(F)(F)F)cc5)nn4)c3)c2cc1OCCCN1CCOCC1 [Compound 7h] | 4.89 ± 0.16 | 5.21 ± 0.3 | 7.13 ± 1.21
COc1cc(Cn2cc(-c3cccc(Nc4ncnc5cc(OC)c(OCCCN6CCOCC6)cc45)c3)nn2)cc(OC)c1 [Compound 7o] | 6.78 ± 0.41 | 5.21 ± 0.13 | 12 ± 0.15
COc1cc2ncnc(Nc3cccc(-c4cn(Cc5ccccc5C)nn4)c3)c2cc1OCCCN1CCOCC1 [Compound 7l] | 4.92 ± 0.49 | 0.84 ± 0.1 | 6.59 ± 0.2
COc1cc2ncnc(Nc3cccc(-c4cn(Cc5c(F)cccc5Cl)nn4)c3)c2cc1OCCCN1CCOCC1 [Compound 7d] | 6.04 ± 0.41 | 4.83 ± 0.16 | 8.5 ± 0.41
COc1cc2ncnc(Nc3cccc(-c4cn(Cc5ccc(Br)cc5F)nn4)c3)c2cc1OCCCN1CCOCC1 [Compound 7b] | 4.6 ± 0.16 | 3.65 ± 0.04 | 5.28 ± 0.2
COc1cc2ncnc(Nc3cccc(-c4cn(Cc5ccccc5F)nn4)c3)c2cc1OCCCN1CCOCC1 [Compound 7g, N-(3-(1-(2-fluorobenzyl)-1H-1,2,3-triazol-4-yl)phenyl)-7-methoxy-6-(3-morpholinopropoxy)quinazolin-4-amine] | 5.97 ± 0.36 | 1.66 ± 0.18 | 6.23 ± 0.12

Reference: PMC11035632, “Discovery of gefitinib-1,2,3-triazole derivatives against lung cancer via inducing apoptosis and inhibiting the colony formation” (Scientific Reports, 2024)
